What was measured:
BCRP [1] = target: T1, BCRP (Homo sapiens, UniProt Q9UNQ0); experiment: bidirectional transport assay across hCMEC/D3 cell monolayer with or without Ko143; details: for transport by BCRP (conclusion of bidirectional transport assay): ER ≥ 1.5 and significantly reduced by Ko143; for Papp A→B at 2 h, 300 µM / Papp A→B at 2 h, 600 μM / Papp B→A at 2 h, 300 µM / Papp B→A at 2 h, 600 μM / efflux ratio at 2 h / efflux ratio at 2 h, 300 µM / efflux ratio at 2 h, 600 μM / Papp A→B at 2 h, 40 μM / Papp A→B at 2 h, 80 μM / Papp B→A at 2 h, 40 μM / Papp B→A at 2 h, 80 μM / efflux ratio at 2 h, 40 μM / efflux ratio at 2 h, 80 μM: human
T1 sequence (Q9UNQ0 1-655): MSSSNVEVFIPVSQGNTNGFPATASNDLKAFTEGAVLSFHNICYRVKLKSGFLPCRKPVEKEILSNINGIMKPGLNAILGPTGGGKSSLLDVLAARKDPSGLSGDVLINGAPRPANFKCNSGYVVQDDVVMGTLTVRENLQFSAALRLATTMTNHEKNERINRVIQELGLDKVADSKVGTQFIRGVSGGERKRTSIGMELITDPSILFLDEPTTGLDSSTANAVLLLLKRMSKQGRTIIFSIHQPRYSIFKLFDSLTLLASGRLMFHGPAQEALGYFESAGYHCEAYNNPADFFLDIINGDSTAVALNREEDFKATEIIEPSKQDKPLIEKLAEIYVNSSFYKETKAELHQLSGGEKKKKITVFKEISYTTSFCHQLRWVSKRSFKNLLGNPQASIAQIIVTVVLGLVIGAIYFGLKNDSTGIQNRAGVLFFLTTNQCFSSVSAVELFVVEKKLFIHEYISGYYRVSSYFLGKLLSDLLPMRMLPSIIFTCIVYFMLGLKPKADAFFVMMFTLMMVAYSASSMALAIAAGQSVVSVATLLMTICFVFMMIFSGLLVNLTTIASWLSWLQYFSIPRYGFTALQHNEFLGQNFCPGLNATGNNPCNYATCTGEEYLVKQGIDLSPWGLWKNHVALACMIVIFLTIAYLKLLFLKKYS
Experimental: For transport assays, hCMEC/D3 cells were seeded on collagen type I‐coated Transwell inserts (polycarbonate 12‐well, pore size […]) (cat. no. CLS3460; Corning, NY, USA) at 80% confluency and cultured as described in section 2.5. In brief, the drug was dissolved in Hanks’ balanced salt solution supplemented with 10 mM HEPES, 1 mM Na‐Pyruvate, pH 7.4 at 37°C (transport buffer). Initially, both sides of the chamber were washed with 1X PBS and the assay was performed with pre‐warmed transport buffer. 0.5 ml or 1.5 ml of the drug solution, with or without BCRP‐specific inhibitor Ko143 (1 μM) was added to either the apical side or basolateral side of the monolayer, respectively, and fresh transport buffer was added to the opposite side. Aliquots of 100 μl samples were taken from the opposite sides every 30 min for 2 h, and the same amount of fresh transport buffer was added to the same chamber after each sampling. […] Concentrations of ASMs were evaluated by HPLC or LC/MS. Apparent permeability (Papp) is defined as the transport rate of ASM and efflux ratio (ER) was calculated as the ratio of Papp in the basolateral‐to‐apical (Papp(B→A)) direction to the Papp in the apical‐to‐basolateral (Papp(A→B)) direction. The samples were stored at −20°C until analysis. […] Fluorescence detection of lucifer yellow (excitation at 430 nm, and emission at 535 nm) was carried out with Infinite 200 PRO NanoQuant (Tecan, Zurich, Switzerland). […] All transport assays were performed in triplicate.
The calculation for apparent permeability coefficient, Papp, was performed as described before. Papp=dQr/dt/A×C0 where dQr/dt is the cumulative amount in the receiver side vs time in μM/s
A is the area of the cell monolayer
C0 is the initial concentration of the dosing solution (μM).
And, Efflux ratio=Papp(B−to−A)/Papp(A−to−B)

BCRP [2] = target: T1, BCRP; details: previous data; cited from earlier work
[3] = parameters: method as in Johannessen, 2004; Patsalos, 2008; Lee, 2016; details: patients with epilepsy; ref Johannessen, 2004; Patsalos, 2008; Lee, 2016; cited from earlier work
BCRP [4] = target: T1, BCRP; parameters: host or cells: MCF-7 cells overexpressing BCRP; details: previous study; cited from earlier work
BCRP [5] = target: T1, BCRP; experiment: competitive substrate efflux assay (BODIPY-prazosin accumulation) in hCMEC/D3 cells; type: cell-based; details: 1 and 10 µM
Experimental: The potential of ASMs to compete with a known fluorescent substrate of BCRP, BPZ in hCMEC/D3 cells was examined using a competitive substrate efflux assay that has previously been used in various studies. The interaction of CBZ, DCLB, OXC, TPM, and LEVI with BCRP was evaluated. Initially, hCMEC/D3 were seeded in 12‐well plates (cat. no. 150628, Nunc, Thermo Fisher Scientific, MA, USA) at 70‐80% confluency for 24 h. In this study, Ko143 was used for BCRP inhibition. The cultured cells were incubated at 37°C for half an hour in media containing BPZ with either the test ASMs or Ko143. Cells were washed with chilled 1X PBS three times and again incubated at 37°C for 1 h 30 min in BPZ‐free media with or without Ko143. Cells were washed three times with ice‐cold 1X PBS to terminate the assay. Cell lysis was performed by adding 1% triton X‐100, followed by incubating the cells for 15 min at 37°C. 20 µl of cell lysate was placed in 384‐well black assay plates for fluorescence detection (excitation at 488 nm; emission at 530 nm) to Infinite 200 PRO NanoQuant (Tecan, Zurich, Switzerland). The rest of the cell lysate was used for determining protein levels using the BCA protein estimation method to normalize the observed fluorescence intensity with total protein yield. The data were shown as a fold increment in intracellular fluorescence of BPZ relative to the control.

BCRP [6] = target: T1, BCRP; experiment: vanadate-sensitive BCRP ATPase assay (membrane vesicles from MCF-7 cells overexpressing BCRP); type: biochemical; parameters: host or cells: MCF-7 cells overexpressing BCRP; details: […] µM
Experimental: To assess the interaction between ASMs and BCRP, a vanadate‐sensitive ATPase assay was performed as per the manufacturer's instructions manual. […] After 10 min, 1x developer solution was added and kept for 2 min. To stop the reaction, 100 µL blocker solution was added and incubated for 30 min. at 37°C. The optical densities were measured at 620 nm using an Infinite 200 PRO NanoQuant (Tecan, Zurich, Switzerland) plate reader. 1 μM Ko143 was used as a positive control for BCRP inhibition. Ko143 was used at a concentration that is known to inhibit BCRP efficiently. The results were expressed as vanadate‐sensitive ATPase activity that is based on the difference in inorganic phosphate released between samples with and without vanadate. This will evaluate the ability of the test ASM to stimulate BCRP's baseline ATPase activity.

[7] = 5 μM, hCMEC/D3 monolayer, 1 μM Ko143
[8] = 10 μM, hCMEC/D3 monolayer, 1 μM Ko143

CCCC(CCC)C(=O)O [VPA, valproic acid]
transport by BCRP (conclusion of bidirectional transport assay) (BCRP [1]; hCMEC/D3 monolayer): transports
Papp A→B at 2 h, 300 µM (BCRP [1]; pH 7.4): 0.19 ×10⁻⁶ cm/s
Papp A→B at 2 h, 600 μM (BCRP [1]; pH 7.4): 0.34 ×10⁻⁶ cm/s
Papp B→A at 2 h, 300 µM (BCRP [1]; pH 7.4): 0.31 ×10⁻⁶ cm/s
Papp B→A at 2 h, 600 μM (BCRP [1]; pH 7.4): 0.64 ×10⁻⁶ cm/s
efflux ratio at 2 h (BCRP [1]; pH 7.4, Efflux ratio (ER) without inhibitor, at all the tested concentrations, hCMEC/D3 monolayer): > 1.5
efflux ratio at 2 h, 300 µM (BCRP [1]; pH 7.4, Efflux ratio (ER), hCMEC/D3 without inhibitor Ko143, 300 μM, hCMEC/D3 monolayer): > 1.5
efflux ratio at 2 h, 600 μM (BCRP [1]; pH 7.4, Efflux ratio (ER), hCMEC/D3 without inhibitor Ko143, 600 μM, hCMEC/D3 monolayer): > 1.5
Papp A→B at 2 h, 300 µM (BCRP [1]; pH 7.4, with Ko143 1 μM): 0.21 ×10⁻⁶ cm/s
Papp A→B at 2 h, 600 μM (BCRP [1]; pH 7.4, with Ko143 1 μM): 0.33 ×10⁻⁶ cm/s
Papp B→A at 2 h, 300 µM (BCRP [1]; pH 7.4, with Ko143 1 μM): 0.24 ×10⁻⁶ cm/s
Papp B→A at 2 h, 600 μM (BCRP [1]; pH 7.4, with Ko143 1 μM): 0.37 ×10⁻⁶ cm/s
efflux ratio at 2 h (BCRP [1]; pH 7.4, with Ko143 1 µM, Efflux ratio (ER) in the presence of Ko143, at all the tested concentrations, hCMEC/D3 monolayer, 1 μM Ko143): ~1
efflux ratio at 2 h, 300 µM (BCRP [1]; pH 7.4, with Ko143 1 µM, Efflux ratio (ER), hCMEC/D3 with inhibitor Ko143, 300 μM, hCMEC/D3 monolayer, 1 μM Ko143): 1.1
efflux ratio at 2 h, 600 μM (BCRP [1]; pH 7.4, with Ko143 1 μM, Efflux ratio (ER), hCMEC/D3 with inhibitor Ko143, 600 μM, hCMEC/D3 monolayer, 1 μM Ko143): 1.14
BPZ accumulation in competitive substrate efflux assay in hCMEC/D3 cells (BCRP [2]): increased BPZ accumulation
Therapeutic plasma concentration range [3]: 300 to 600 µM
stimulation of BCRP ATPase activity (BCRP [4]): stimulated

O=C1NC(=O)C(c2ccccc2)(c2ccccc2)N1 [PHT, phenytoin]
Efflux ratio (ER), hCMEC/D3 without inhibitor Ko143 (BCRP [1]; 80 μM, hCMEC/D3 monolayer): 1.53
transport by BCRP (conclusion of bidirectional transport assay) (BCRP [1]; hCMEC/D3 monolayer): not
Papp A→B at 2 h, 40 μM (BCRP [1]; pH 7.4): 2.12 ×10⁻⁶ cm/s
Papp A→B at 2 h, 80 μM (BCRP [1]; pH 7.4): 3.09 ×10⁻⁶ cm/s
Papp B→A at 2 h, 40 μM (BCRP [1]; pH 7.4): 2.59 ×10⁻⁶ cm/s
Papp B→A at 2 h, 80 μM (BCRP [1]; pH 7.4): 3.36 ×10⁻⁶ cm/s
efflux ratio at 2 h, 40 μM (BCRP [1]; pH 7.4, Efflux ratio (ER), hCMEC/D3 without inhibitor Ko143, 40 μM, hCMEC/D3 monolayer): 1.28
efflux ratio at 2 h, 80 μM (BCRP [1]; pH 7.4, Efflux ratio (ER), hCMEC/D3 without inhibitor Ko143, 80 μM, hCMEC/D3 monolayer): 1.5
Papp A→B at 2 h, 40 μM (BCRP [1]; pH 7.4, with Ko143 1 μM): 2.71 ×10⁻⁶ cm/s
Papp A→B at 2 h, 80 μM (BCRP [1]; pH 7.4, with Ko143 1 μM): 2.03 ×10⁻⁶ cm/s
Papp B→A at 2 h, 40 μM (BCRP [1]; pH 7.4, with Ko143 1 μM): 3.07 ×10⁻⁶ cm/s
Papp B→A at 2 h, 80 μM (BCRP [1]; pH 7.4, with Ko143 1 μM): 2.12 ×10⁻⁶ cm/s
efflux ratio at 2 h, 40 μM (BCRP [1]; pH 7.4, with Ko143 1 μM, Efflux ratio (ER), hCMEC/D3 with inhibitor Ko143, 40 μM, hCMEC/D3 monolayer, 1 μM Ko143): 1.17
efflux ratio at 2 h, 80 μM (BCRP [1]; pH 7.4, with Ko143 1 μM, Efflux ratio (ER), hCMEC/D3 with inhibitor Ko143, 80 μM, hCMEC/D3 monolayer, 1 μM Ko143): 1.31
BPZ accumulation in competitive substrate efflux assay in hCMEC/D3 cells (BCRP [2]): increased BPZ accumulation
Therapeutic plasma concentration range [3]: 40 to 80 µM
stimulation of BCRP ATPase activity (BCRP [4]): stimulated

O=C1CC(=O)N(c2ccccc2)c2cc(Cl)ccc2N1 [DCLB, N‐desmethyl clobazam]
BPZ accumulation in hCMEC/D3 cells (BCRP [5]): significantly increased
Efflux ratio (ER), hCMEC/D3 without inhibitor Ko143 (BCRP [1]; 5 μM, hCMEC/D3 monolayer): 2
Papp A-->B, hCMEC/D3 without inhibitor Ko143 (BCRP [1]; 5 μM, hCMEC/D3 monolayer): 2.83 ×10⁻⁶ cm/s
Papp B-->A, hCMEC/D3 without inhibitor Ko143 (BCRP [1]; 5 μM, hCMEC/D3 monolayer): 5.66 ×10⁻⁶ cm/s
Efflux ratio (ER), hCMEC/D3 with inhibitor Ko143 (BCRP [1]; [7]): ~1
Papp A-->B, hCMEC/D3 with inhibitor Ko143 (BCRP [1]; [7]): 5.66 ×10⁻⁶ cm/s
Papp B-->A, hCMEC/D3 with inhibitor Ko143 (BCRP [1]; [7]): 5.66 ×10⁻⁶ cm/s
Efflux ratio (ER), hCMEC/D3 without inhibitor Ko143 (BCRP [1]; 5 μM, hCMEC/D3 monolayer, listed as N‐desmethyl clobazam): 2.0
Efflux ratio (ER), hCMEC/D3 without inhibitor Ko143 (BCRP [1]; 10 μM, hCMEC/D3 monolayer): 2
Papp A-->B, hCMEC/D3 without inhibitor Ko143 (BCRP [1]; 10 μM, hCMEC/D3 monolayer): 2.83 ×10⁻⁶ cm/s
Papp B-->A, hCMEC/D3 without inhibitor Ko143 (BCRP [1]; 10 μM, hCMEC/D3 monolayer): 5.66 ×10⁻⁶ cm/s
Efflux ratio (ER), hCMEC/D3 with inhibitor Ko143 (BCRP [1]; [8]): ~1
Papp A-->B, hCMEC/D3 with inhibitor Ko143 (BCRP [1]; [8]): 2.83 ×10⁻⁶ cm/s
Papp B-->A, hCMEC/D3 with inhibitor Ko143 (BCRP [1]; [8]): 2.83 ×10⁻⁶ cm/s
Efflux ratio (ER), hCMEC/D3 without inhibitor Ko143 (BCRP [1]; 10 μM, hCMEC/D3 monolayer, listed as N‐desmethyl clobazam): 2.0
Efflux ratio (ER) without inhibitor (BCRP [1]; at all the tested concentrations, hCMEC/D3 monolayer): above 1.5
Efflux ratio (ER) in the presence of Ko143 (BCRP [1]; at all the tested concentrations, hCMEC/D3 monolayer, 1 μM Ko143): ~1
transport by BCRP (conclusion of bidirectional transport assay) (BCRP [1]; hCMEC/D3 monolayer): transports
Therapeutic plasma concentration range [3]: 1 to 10 µM
stimulation of BCRP ATPase activity (activation assay) (BCRP [6]): significantly stimulated
